Measurements taken from patent EP2910557A1, “Enantiopure tetrasubstituted pyrrolidines as scaffolds for proteasome inhibitors and medicinal applications thereof” (Ikerchem, S.L., priority 2014, dated 2015).

Columns and labels:
[1] = target: T1, Human erythrocyte 20S proteasome (Homo sapiens, UniProt P28074); experiment: In vitro enzymatic assay of proteasome inhibitory activity (Suc-Leu-Leu-Val-Tyr-AMC substrate); format: biochemical; conditions: for inhibition at 0.05 µM: Concentration 50 nM; for IC50: human erythrocyte 20S proteasome, 10 µM Suc-Leu-Leu-Val-Tyr-AMC, 37°C
T1 construct: Enzyme: Human erythrocyte 20S proteasome; from tissue; host or cells: human erythrocytes
Protocol: Example 20: In vitro enzymatic assay of proteasome inhibitory activity.
Substrate: Suc-Leu-Leu-Val-Tyr-AMC
Assay buffer: 250 mM HEPES, pH 7.5, 0.5 mM EDTA, 0.03% SDS, 0.05% Igepal CA-630.
Enzyme: Human erythrocyte 20S proteasome
In vitro proteasome inhibitory activity of the compounds of the invention is evaluated by spectrofluorimetric quantitation of AMC. Stock solutions of compounds of the invention are prepared in dimethyl sulphoxide (DMSO). Test compound and/or vehicle is preincubated with […] enzyme (human erythrocyte 20S proteasome) in modified HEPES buffer pH 7.5 and 1% final concentration of DMSO for 15 minutes at 37°C. The reaction is initiated by addition of 10 µM Suc-Leu-Leu-Val-Tyr-AMC for another 30 minutes incubation period at 37°C. Determination of the release of AMC is read spectrophotometrically (excitation, 380 nm; emission, 460 nm). IC50 values are determined by a non-linear, least squares regression analysis using MathlQTM (ID Business Solutions Ltd., UK).

[2] = tested on: HeLa; experiment: Cancer cell growth inhibition, 72 h treatment; format: cell-based; conditions: Homo sapiens, Cervical HeLa, Alamar Blue
Protocol: (§1) Cell culture-based assays were used to evaluate the ability of compounds of the invention to inhibit cancer cell growth.
(§2) Cells were obtained from the American Type Culture Collection (ATCC) and the European Collection of Cell Cultures. Cells were thawed in their appropriate media plus supplements (see table below). Cells were passaged at confluence by washing once in HBSS cation-free followed by a 3 minutes incubation with trypsin ([0.5 µg/ml]/EDTA [0.2 µg/ml]) (Gibco-BRL, 15400054) solution in HBSS at 37°C (except non-adherent cell lines - hematologic), and transferred to their appropriate media plus supplements. Prior to seeding at defined cell concentration, cells were recovered in medium, centrifuged, taken up in medium and counted.
(§3) All treatments were performed in triplicate. Experiments were carried out in 96-well cell culture plates (Cultek) and the cell lines seeded at the density mentioned in the table above and cultured at 37°C with 5% CO2. After 24h, media were supplemented by 100 µl/well of diluted test compound at variable final concentrations and incubated for 72 hours. Then, AlamarBlue® Reagent (Biosource DAL1100) was added to each well and incubated at 37°C for 4 hours. Relative fluorescent intensity that correlates with the number of living cells was read in a Cytofluor plate reader (Millipore) at 535/590 nm (Excitation/emission). After reading the AlamarBlue® signal, the hexosaminidase activitity was measured according to the following protocol: medium was removed and cells were washed once with PBS. 60 µl of substrate solution (p-nitrophenol-N-acetyl-beta-D-glucosaminide 7.5 mM [Sigma N-9376], sodium citrate 0.1 M, pH 5.0, 0.25% Triton X-1 00) was added to each well and incubated at 37°C for 1-2 hours; after this incubation time, a bright yellow colour appears; then, plates could be developed by adding 90 µl of developer solution (Glycine 50 mM, pH 10.4; EDTA 5 mM), and absorbance was recorded at 405 nm.
(§4) Note: In all cases assays were performed in Alamar Blue with the exception of those indicated (* = Hexosaminidase assay)

[3] = tested on: OVCAR-3; experiment: Cancer cell growth inhibition, 72 h treatment; format: cell-based; conditions: Homo sapiens
Protocol: as §1, §2, §3, §4

[4] = tested on: MDA-MB-435; experiment: Cancer cell growth inhibition, 72 h treatment; format: cell-based; conditions: Homo sapiens, Melanoma MDA-MB-435, Alamar Blue
Protocol: as §1, §2, §3, §4

[5] = tested on: T47D; experiment: Cancer cell growth inhibition, 72 h treatment; format: cell-based; conditions: Homo sapiens, Breast cancer T47D
Protocol: as §1, §2, §3, §4

[6] = tested on: HT-1080; experiment: Cancer cell growth inhibition, 72 h treatment; format: cell-based; conditions: Homo sapiens
Protocol: as §1, §2, §3, §4

[7] = tested on: RPMI-8226; experiment: Cancer cell growth inhibition, 72 h treatment; format: cell-based; conditions: Homo sapiens, Multiple mieloma RPMI-8226, Alamar Blue
Protocol: as §1, §2, §3, §4

[8] = tested on: 143b; experiment: Cancer cell growth inhibition, 72 h treatment; format: cell-based; conditions: Homo sapiens, Osteosarcoma 143b, Alamar Blue
Protocol: as §1, §2, §3, §4

[9] = tested on: BxPC-3; experiment: Cancer cell growth inhibition, 72 h treatment; format: cell-based; conditions: Homo sapiens
Protocol: as §1, §2, §3, §4

[10] = tested on: MDA-MB-231; experiment: Cancer cell growth inhibition, 72 h treatment; format: cell-based; conditions: Homo sapiens, Breast cancer MDA-MB-231, Alamar Blue
Protocol: as §1, §2, §3, §4

[11] = tested on: A549; experiment: Cancer cell growth inhibition, 72 h treatment; format: cell-based; conditions: Homo sapiens
Protocol: as §1, §2, §3, §4

[12] = tested on: U-373 MG; experiment: Cancer cell growth inhibition, 72 h treatment; format: cell-based; conditions: Homo sapiens, U373 MG, Brain U-373 MG
Protocol: as §1, §2, §3, §4

[13] = tested on: NCI-H358; experiment: Cancer cell growth inhibition, 72 h treatment; format: cell-based; conditions: Homo sapiens, Lung cancer NCI-H358, Alamar Blue
Protocol: as §1, §2, §3, §4

[14] = tested on: HepG2; experiment: Cancer cell growth inhibition, 72 h treatment; format: cell-based; conditions: Homo sapiens, Liver cancer HepG2, Alamar Blue
Protocol: as §1, §2, §3, §4

[15] = tested on: LoVo; experiment: Cancer cell growth inhibition, 72 h treatment; format: cell-based; conditions: Homo sapiens, Colon cancer LoVo, Alamar Blue
Protocol: as §1, §2, §3, §4

[16] = tested on: Daoy; experiment: Cancer cell growth inhibition, 72 h treatment; format: cell-based; conditions: Homo sapiens, Brain Daoy, Alamar Blue
Protocol: as §1, §2, §3, §4

[17] = tested on: SK-BR-3; experiment: Cancer cell growth inhibition, 72 h treatment; format: cell-based; conditions: Homo sapiens
Protocol: as §1, §2, §3, §4

[18] = tested on: Jurkat; experiment: Cancer cell growth inhibition, 72 h treatment; format: cell-based; conditions: Homo sapiens, Hematologic Jurkat, Alamar Blue
Protocol: as §1, §2, §3, §4

[19] = tested on: RAMOS; experiment: Cancer cell growth inhibition, 72 h treatment; format: cell-based; conditions: Homo sapiens, Hematologic RAMOS, Alamar Blue
Protocol: as §1, §2, §3, §4

[20] = tested on: NCI-H1650; experiment: Cancer cell growth inhibition, 72 h treatment; format: cell-based; conditions: Homo sapiens
Protocol: as §1, §2, §3, §4

[21] = tested on: PC-3; experiment: Cancer cell growth inhibition, 72 h treatment; format: cell-based; conditions: Homo sapiens, Prostate cancer PC-3, Alamar Blue
Protocol: as §1, §2, §3, §4

[22] = tested on: MDA-MB-468; experiment: Cancer cell growth inhibition, 72 h treatment; format: cell-based; conditions: Homo sapiens, Breast cancer MDA-MB-468, Alamar Blue
Protocol: as §1, §2, §3, §4

[23] = tested on: DU-145; experiment: Cancer cell growth inhibition, 72 h treatment; format: cell-based; conditions: Homo sapiens, Prostate cancer DU-145, Alamar Blue
Protocol: as §1, §2, §3, §4

[24] = tested on: K562; experiment: Cancer cell growth inhibition, 72 h treatment; format: cell-based; conditions: Homo sapiens, Hematologic K562, Alamar Blue
Protocol: as §1, §2, §3, §4

[25] = Ovarian cancer OVCAR-3, Hexosaminidase assay (*)
[26] = Fibrosarcoma HT-1080, Alamar Blue
[27] = Pancreatic cancer BxPC-3, Hexosaminidase assay (*)
[28] = Lung cancer A549, Hexosaminidase assay (*)
[29] = Breast cancer SK-BR-3, Alamar Blue
[30] = Lung cancer NCI-H1650, Hexosaminidase assay (*)

## CC(C)C[C@H](NC(=O)[C@@H]1N[C@H](c2ccccc2)[C@@H]([N+](=O)[O-])[C@@H]1c1cccs1)B(O)O [Example 10, (R)-3-methyl-1-((2R,3R,4S,5R)-4-nitro-5-phenyl-3-(thiophen-2-yl)pyrrolidine-2-carboxamido)butylboronic acid]
[1]
  inhibition at 0.05 µM: 79%
  IC50: 0.012 µM
[2]
  EC50: 13 µM
[3]; [25]
  EC50: 0.86 µM
[4]
  EC50: 0.31 µM
[5]; Alamar Blue
  EC50: 0.57 µM
[6]; [26]
  EC50: 1.4 µM
[7]
  EC50: 0.06 µM
[8]
  EC50: 0.29 µM
[9]; [27]
  EC50: 1.5 µM
[10]
  EC50: 2.8 µM
[11]; [28]
  EC50: 2.6 µM
[12]; Hexosaminidase assay (*)
  EC50: 2.8 µM
[13]
  EC50: 0.7 µM
[14]
  EC50: 0.56 µM
[15]
  EC50: 2.5 µM
[16]
  EC50: 0.78 µM
[17]; [29]
  EC50: 0.44 µM
[18]
  EC50: 0.08 µM
[19]
  EC50: 0.53 µM
[20]; [30]
  EC50: 1.8 µM
[21]
  EC50: 1.2 µM
[22]
  EC50: 0.32 µM
[23]
  EC50: 0.91 µM
[24]
  EC50: 1.2 µM

## CC(C)C[C@H](NC(=O)[C@@H]1N[C@H](c2ccccc2)[C@@H]([N+](=O)[O-])[C@@H]1c1ccc(F)cc1)B(O)O [Example 6, (R)-1-((2R,3R,4S,5R)-3-(4-fluorophenyl)-4-nitro-5-phenylpyrrolidine-2-carboxamido)-3-methylbutylboronic acid]
[1]
  inhibition at 0.05 µM: 70%
  IC50: 0.017 µM
[2]
  EC50: 54 µM
[3]; [25]
  EC50: 2.2 µM
[4]
  EC50: 1.1 µM
[5]; Hexosaminidase assay (*)
  EC50: 21 µM
[6]; Fibrosarcoma HT-1080, Hexosaminidase assay (*)
  EC50: 16 µM
[7]
  EC50: 1.3 µM
[8]
  EC50: 1.9 µM
[9]; [27]
  EC50: 5.8 µM
[10]
  EC50: 11 µM
[11]; [28]
  EC50: 12 µM
[12]; Hexosaminidase assay (*)
  EC50: 17 µM
[13]
  EC50: 3.3 µM
[14]
  EC50: 3.1 µM
[15]
  EC50: 15 µM
[16]
  EC50: 3.7 µM
[17]; Breast cancer SK-BR-3, Hexosaminidase assay (*)
  EC50: 6 µM
[18]
  EC50: 2 µM
[19]
  EC50: 2.4 µM
[20]; [30]
  EC50: 12 µM
[21]
  EC50: 7.1 µM
[22]
  EC50: 2.2 µM
[23]
  EC50: 3.5 µM
[24]
  EC50: 15 µM

## CC(C)C[C@H](NC(=O)[C@@H]1N[C@H](c2ccccc2)[C@@H]([N+](=O)[O-])[C@@H]1c1ccccc1)B(O)O [Example 1, (R)-3-methyl-1-((2R,3R,4S,5R)-4-nitro-3,5-diphenylpyrrolidine-2-carboxamido)butylboronic acid]
[1]; Concentration 100 nM
  inhibition at 0.1 µM: 73%
[1]
  IC50: 0.039 µM
[2]
  EC50: 28 µM
[3]; Ovarian cancer OVCAR-3, Alamar Blue
  EC50: 0.74 µM
[4]
  EC50: 1 µM
[5]; Alamar Blue
  EC50: 10 µM
[6]; [26]
  EC50: 1.7 µM
[7]
  EC50: 0.15 µM
[8]
  EC50: 5 µM
[9]; Pancreatic cancer BxPC-3, Alamar Blue
  EC50: 4.6 µM
[10]
  EC50: 5.1 µM
[11]; Lung cancer A549, Alamar Blue
  EC50: 7 µM
[12]; Alamar Blue
  EC50: 44 µM
[13]
  EC50: 0.79 µM
[14]
  EC50: 1.4 µM
[15]
  EC50: 6.7 µM
[16]
  EC50: 1.3 µM
[17]; [29]
  EC50: 1.2 µM
[18]
  EC50: 2.5 µM
[19]
  EC50: 2.4 µM
[20]; Lung cancer NCI-H1650, Alamar Blue
  EC50: 3.3 µM
[21]
  EC50: 1.5 µM
[22]
  EC50: 4.1 µM
[23]
  EC50: 1.9 µM
[24]
  EC50: 6.3 µM
